Test results from ChEMBL document CHEMBL5532719, “Insight on Some Newly Synthesized Trisubstituted Imidazolinones as VEGFR-2 Inhibitors” (ACS Med Chem Lett, 2024).
Converted amounts (≈) assume the structure as drawn. Blank lines part the entries; values can stand above or below the compound they belong to.

Assays:
[1] = target: T1, Vascular endothelial growth factor receptor 2 (Homo sapiens, UniProt P35968); assay: Inhibition of recombinant human VEGFR-2 using poly (Glu,Tyr) 4:1 as substrate in presence of ATP
T1 sequence (P35968 whole entry): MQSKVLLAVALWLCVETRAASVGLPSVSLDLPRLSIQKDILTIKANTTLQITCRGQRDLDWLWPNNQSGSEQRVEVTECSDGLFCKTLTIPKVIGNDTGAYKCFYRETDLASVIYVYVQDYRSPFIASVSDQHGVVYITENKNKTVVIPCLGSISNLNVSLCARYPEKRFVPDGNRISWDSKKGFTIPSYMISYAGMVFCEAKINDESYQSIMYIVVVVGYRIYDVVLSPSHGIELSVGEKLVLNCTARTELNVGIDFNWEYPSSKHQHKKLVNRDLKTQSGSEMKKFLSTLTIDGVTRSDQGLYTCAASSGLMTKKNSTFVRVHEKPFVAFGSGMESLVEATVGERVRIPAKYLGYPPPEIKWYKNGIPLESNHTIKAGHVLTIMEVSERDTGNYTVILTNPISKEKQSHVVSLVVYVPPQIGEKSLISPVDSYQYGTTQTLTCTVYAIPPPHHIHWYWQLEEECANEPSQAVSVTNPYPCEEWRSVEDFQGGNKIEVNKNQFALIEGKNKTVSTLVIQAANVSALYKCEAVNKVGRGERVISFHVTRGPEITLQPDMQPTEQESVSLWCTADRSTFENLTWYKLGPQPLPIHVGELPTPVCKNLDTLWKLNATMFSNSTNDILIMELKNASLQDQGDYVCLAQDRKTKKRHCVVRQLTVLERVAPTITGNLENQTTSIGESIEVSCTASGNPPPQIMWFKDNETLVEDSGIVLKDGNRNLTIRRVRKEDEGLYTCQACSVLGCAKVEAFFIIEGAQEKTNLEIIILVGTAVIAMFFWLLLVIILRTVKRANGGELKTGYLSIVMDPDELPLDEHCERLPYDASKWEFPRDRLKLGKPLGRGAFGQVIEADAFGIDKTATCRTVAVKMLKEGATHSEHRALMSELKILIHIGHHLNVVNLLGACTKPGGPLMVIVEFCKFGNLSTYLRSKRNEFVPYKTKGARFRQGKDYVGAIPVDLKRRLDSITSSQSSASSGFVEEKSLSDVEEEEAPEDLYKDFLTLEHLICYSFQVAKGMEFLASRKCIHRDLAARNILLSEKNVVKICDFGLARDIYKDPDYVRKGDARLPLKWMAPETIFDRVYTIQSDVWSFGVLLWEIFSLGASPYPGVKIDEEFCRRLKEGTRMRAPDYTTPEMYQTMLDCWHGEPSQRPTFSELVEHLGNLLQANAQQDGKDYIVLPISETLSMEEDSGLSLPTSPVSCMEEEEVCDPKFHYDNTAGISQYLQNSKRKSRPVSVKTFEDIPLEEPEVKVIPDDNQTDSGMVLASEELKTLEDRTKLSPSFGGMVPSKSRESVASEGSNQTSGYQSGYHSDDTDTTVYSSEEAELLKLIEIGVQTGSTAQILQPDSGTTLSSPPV

MCF7 [2] = assay: Cytotoxicity against human MCF7 cells incubated for 72 hrs by MTT assay; type: functional, cell-based; conditions: MCF7, 72 h
A549 = assay: Cytotoxicity against human A549 cells incubated for 72 hrs by MTT assay; type: functional, cell-based; conditions: A549, 72 h
[3] = Cytotoxicity against HUVECs incubated for 72 hrs by MTT assay; type: toxicity, cell-based; conditions: human, HUVEC cells
[4] = target: T1, Vascular endothelial growth factor receptor 2; assay: Inhibition of recombinant VEGFR2 (unknown origin) using poly (Glu,Tyr) 4:1 as substrate measured after 45 mins in presence of ATP by microplate reader analysis
HUVEC = assay: Inhibition of cell migration in human HUVECs assessed as reduction in wound closure percentage (reference value: 97.037%); type: functional; set-up: scale not given: the % may be the effect or the level left
[5] = Selectivity index, ratio of IC50 for human WI-38 cells to IC50 for human A549 cells; type: toxicity; conditions: WI-38 cells versus A549 cells, read-out: Ratio IC50
[6] = Selectivity index, ratio of IC50 for human WI-38 cells to IC50 for human MCF7 cells; type: toxicity; conditions: WI-38 cells versus MCF7 cells, read-out: Ratio IC50
[7] = Cytotoxicity against human WI-38 cells incubated for 72 hrs by MTT assay; type: toxicity, cell-based
MCF7 [8] = assay: Induction of cell cycle arrest in human MCF7 cells assessed as G1 phase arrest at 5.86 uM incubated for 72 hrs by PI staining based flow cytometry analysis (reference value: 11.07%); type: functional
MCF7 [9] = assay: Induction of apoptosis in human MCF7 cells assessed as necrotic cells at 5.86 uM incubated for 72 hrs by Annexin-V/PI staining based flow cytometry analysis (reference value: 0.02%); type: functional
MCF7 [10] = assay: Induction of cell cycle arrest in human MCF7 cells assessed as G2/M phase arrest at 5.86 uM incubated for 72 hrs by PI staining based flow cytometry analysis (reference value: 13.52%); type: functional
MCF7 [11] = assay: Induction of apoptosis in human MCF7 cells assessed as early apoptotic cells at 5.86 uM incubated for 72 hrs by Annexin-V/PI staining based flow cytometry analysis (reference value: 0.06%); type: functional
MCF7 [12] = assay: Induction of apoptosis in human MCF7 cells assessed as late apoptotic cells at 5.86 uM incubated for 72 hrs by Annexin-V/PI staining based flow cytometry analysis (reference value: 0.68%); type: functional
HepG2 = assay: Cytotoxicity against human HepG2 cells; type: functional, cell-based
MCF7 [13] = assay: Cytotoxicity against human MCF-7 cells; type: functional, cell-based

- IC50 [1]: 0.0198 µM
Structure (SMILES): CCOC(=O)/C(C#N)=C(\c1ccc(O)cc1)N1CC(=O)N(/N=C(\C)c2ccc(O)cc2O)C1=S

- IC50 [1]: 0.0251 µM
Structure (SMILES): C/C(=N\N1C(=O)CNC1=S)c1ccc(O)cc1O

Structure (SMILES): Cc1cc(NS(=O)(=O)c2ccc(NC(=O)COC(=O)c3ccc(N4C(=O)/C(=C/c5ccc(N(C)C)cc5)N=C4c4ccccc4)cc3)cc2)no1
- IC50 (MCF7 [2]): 26.8 µM
- IC50 (A549): 30.6 µM

- IC50 [4]: 0.07 µM
Structure (SMILES): CN(C)c1ccc(/C=C2\N=C(c3ccc(Cl)cc3)N(c3ccc(S(=O)(=O)Nc4ncccn4)cc3)C2=O)cc1
- IC50 at 72 h [3]: 179 µM
- Activity (HUVEC): 65.926%
- selectivity ratio [5]: 2.88
- selectivity ratio [6]: 3.69
- IC50 at 72 h [7]: 21.6 µM
- Activity (MCF7 [8]): 22.68%
- Activity (MCF7 [9]): 1.64%
- Activity (MCF7 [10]): 35.17%
- IC50 (MCF7 [2]): 5.86 µM
- Activity (MCF7 [11]): 22.84%
- Activity (MCF7 [12]): 42.21%
- IC50 (A549): 7.66 µM

- IC50 [4]: 0.2 µM
Structure (SMILES): CN(C)c1ccc(/C=C2\N=C(c3ccccc3)N(c3ccc(S(N)(=O)=O)cc3)C2=O)cc1
- IC50 (MCF7 [2]): 19.5 µM
- IC50 (A549): 29 µM

Structure (SMILES): CN(C)c1ccc(/C=C2\N=C(c3ccccc3)N(c3ccc(S(=O)(=O)Nc4ncccn4)cc3)C2=O)cc1
- IC50 (MCF7 [2]): 21.1 µM
- IC50 (A549): 29.6 µM

Structure (SMILES): CN(C)c1ccc(/C=C2\N=C(c3ccccc3)N(c3ccc(S(=O)(=O)Nc4nccs4)cc3)C2=O)cc1
- IC50 (MCF7 [2]): 39.9 µM
- IC50 (A549): 31.6 µM

Structure (SMILES): CN(C)c1ccc(/C=C2\N=C(c3ccccc3)N(c3ccc(C(=O)OCC(=O)Nc4ccc(S(=O)(=O)Nc5nccs5)cc4)cc3)C2=O)cc1
- IC50 (MCF7 [2]): 26.5 µM
- IC50 (A549): 16.6 µM

Structure (SMILES): CN(C)c1ccc(/C=C2\N=C(c3ccccc3)N(c3ccc(S(=O)(=O)NC(=N)N)cc3)C2=O)cc1
- IC50 (MCF7 [2]): 37.4 µM
- IC50 (A549): 61.2 µM

Structure (SMILES): O=C1/C(=C/c2ccc(O)c(Br)c2)N=C(c2ccc(Cl)cc2)N1c1ccccc1
- IC50 (HepG2): 6.1 µg/mL (≈ 13.4 µM)
- IC50 (MCF7 [13]): 18 µg/mL (≈ 39.7 µM)

- IC50 [4]: 0.11 µM
Structure (SMILES): Cc1cc(NS(=O)(=O)c2ccc(N3C(=O)/C(=C/c4ccc(N(C)C)cc4)N=C3c3ccc(Cl)cc3)cc2)no1
- IC50 (MCF7 [2]): 11.5 µM
- IC50 (A549): 42.4 µM

Structure (SMILES): CN(C)c1ccc(/C=C2\N=C(c3ccc(Cl)cc3)N(c3ccc(C(=O)OCC(=O)Nc4ccc(S(=O)(=O)Nc5ncccn5)cc4)cc3)C2=O)cc1
- IC50 (MCF7 [2]): 28.4 µM
- IC50 (A549): 58 µM

- IC50 [4]: 0.02 µM
Structure (SMILES): CN(C)c1ccc(/C=C2\N=C(c3ccccc3)N(c3ccc(C(=O)OCC(=O)Nc4ccc(S(N)(=O)=O)cc4)cc3)C2=O)cc1
- IC50 (MCF7 [2]): 17.7 µM
- IC50 (A549): 14.1 µM

- IC50 [4]: 0.16 µM
Structure (SMILES): CN(C)c1ccc(/C=C2\N=C(c3ccc(Cl)cc3)N(c3ccc(S(=O)(=O)NC(=N)N)cc3)C2=O)cc1
- IC50 (MCF7 [2]): 13.6 µM
- IC50 (A549): 27.8 µM

Structure (SMILES): CC(=O)Oc1ccc(/C=C2\N=C(c3ccc(Cl)cc3)N(c3ccccc3)C2=O)cc1Br
- IC50 (HepG2): 4.6 µg/mL (≈ 9.28 µM)
- IC50 (MCF7 [13]): 17.8 µg/mL (≈ 35.9 µM)

- IC50 [4]: 0.1 µM
Structure (SMILES): CN(C)c1ccc(/C=C2\N=C(c3ccc(Cl)cc3)N(c3ccc(S(=O)(=O)Nc4nccs4)cc3)C2=O)cc1
- IC50 (MCF7 [2]): 8.65 µM
- IC50 (A549): 16.2 µM

- IC50 [4]: 0.36 µM
Structure (SMILES): CN(C)c1ccc(/C=C2\N=C(c3ccc(Cl)cc3)N(c3ccc(C(=O)OCC(=O)Nc4ccc(S(N)(=O)=O)cc4)cc3)C2=O)cc1
- IC50 (MCF7 [2]): 24.2 µM
- IC50 (A549): 25 µM

Structure (SMILES): Cc1cc(NS(=O)(=O)c2ccc(NC(=O)COC(=O)c3ccc(N4C(=O)/C(=C/c5ccc(N(C)C)cc5)N=C4c4ccc(Cl)cc4)cc3)cc2)no1
- IC50 (MCF7 [2]): 42.1 µM
- IC50 (A549): 45.5 µM

Structure (SMILES): CN(C)c1ccc(/C=C2\N=C(c3ccccc3)N(c3ccc(C(=O)OCC(=O)Nc4ccc(S(=O)(=O)Nc5ncccn5)cc4)cc3)C2=O)cc1
- IC50 (MCF7 [2]): 28.8 µM
- IC50 (A549): 27.3 µM

- IC50 [4]: 0.14 µM
Structure (SMILES): Cc1cc(NS(=O)(=O)c2ccc(N3C(=O)/C(=C/c4ccc(N(C)C)cc4)N=C3c3ccccc3)cc2)no1
- IC50 (MCF7 [2]): 9.85 µM
- IC50 (A549): 10.1 µM

Structure (SMILES): CN(C)c1ccc(/C=C2\N=C(c3ccccc3)N(c3ccc(C(=O)OCC(=O)Nc4ccc(S(=O)(=O)NC(=N)N)cc4)cc3)C2=O)cc1
- IC50 (MCF7 [2]): 27.7 µM
- IC50 (A549): 38.7 µM

- IC50 [4]: 0.1 µM
Structure (SMILES): CN(C)c1ccc(/C=C2\N=C(c3ccc(Cl)cc3)N(c3ccc(S(N)(=O)=O)cc3)C2=O)cc1
- IC50 (MCF7 [2]): 11.5 µM
- IC50 (A549): 28.8 µM

Structure (SMILES): CN(C)c1ccc(/C=C2\N=C(c3ccc(Cl)cc3)N(c3ccc(C(=O)OCC(=O)Nc4ccc(S(=O)(=O)NC(=N)N)cc4)cc3)C2=O)cc1
- IC50 (MCF7 [2]): 17.2 µM
- IC50 (A549): 20.2 µM

- IC50 [4]: 0.11 µM
Structure (SMILES): CN(C)c1ccc(/C=C2\N=C(c3ccc(Cl)cc3)N(c3ccc(C(=O)OCC(=O)Nc4ccc(S(=O)(=O)Nc5nccs5)cc4)cc3)C2=O)cc1
- IC50 (MCF7 [2]): 10 µM
- IC50 (A549): 12.9 µM

Structure (SMILES): COc1cccc2c1C(=O)c1c(O)c3c(c(O)c1C2=O)C[C@@](O)(C(=O)CO)C[C@@H]3O[C@H]1C[C@H](N)[C@H](O)[C@H](C)O1 [DOXORUBICIN]
- IC50 (MCF7 [2]): 6.52 µM
- IC50 (A549): 4.99 µM

Structure (SMILES): CNC(=O)c1cc(Oc2ccc(NC(=O)Nc3ccc(Cl)c(C(F)(F)F)c3)cc2)ccn1 [SORAFENIB]
- IC50 at 72 h [3]: 89.8 µM
- Activity (HUVEC): 57.037%
- IC50 (MCF7 [2]): 4.88 µM
- IC50 (A549): 7.46 µM
